According to patent US20230088704A1, “A PHARMACEUTICAL COMBINATION FOR THE TREATMENT OF A CANCER” (ABILITY PHARMACEUTICALS S.L., priority 2020, published 2023):

How the values were obtained:
PDL1 = PDL1 expression in cancer cells by flow cytometry (Example 6.2); format: cell-based, human; conditions: ABTL0812 100 μM, 48 hours
Protocol: Methods: Human cancer cell lines were incubated with 100 μM of ABTL0812 during 48 hours and collected for staining with anti-PDL1 antibody labeled with a fluorophore. After staining of cells with anti-PDL1 antibody, cells were run on Flow Cytometry (Facs Canto) to analyzed PDL1 levels in cancer cells. Additionally, we incubated Panc-1 cells with ABTL0812 (50 μM), IFNγ (2.5 ng/ml), a master regulator of PDL1 expression or a combination with both. Then, cells were collected, stained with anti-PDL1 antibody and analyzed by Flow Cytometry for the expression of PDL1.

[1] = tested on: Ishikawa endometrial cancer cells; assay: Co-culture of ABTL0812-treated cancer cells with activated T cells, MTT; format: cell-based, human; conditions: ABTL0812 50 μM 6 hours, then co-culture with activated T lymphocytes 24 hours
Protocol: Methods: human PBMCs were purified from peripheral blood of healthy donors using Ficoll and cultured in vitro. Human T cells were activated by incubation with IL-2 and CD3 and CD28 antibodies for 10 days. In parallel, Ishikawa endometrial cancer cells were treated with ABTL0812 at 50 μM for 6 hours and then co-cultured with activated T lymphocytes for 24 hours. Then, cell viability was assessed by the MTT assay. Untreated Ishikawa cells were used as controls.

Ishikawa cells [2] = assay: Human endometrial cancer xenograft, ABTL0812 with bevacizumab; format: in vivo; conditions: ABTL0812 oral 120 mg/kg/day; Bevacizumab ip 100 μg/dose every four days
Protocol: Methods: Mice were injected with 4×10^6 Ishikawa cells in one flank to induce tumor formation. […] Bevacizumab was administered ip at 100 μg/dose, every four days up to four administration. Tumor volume and body weight were monitored 3 times a week.

MiaPaca2 cells = assay: Cytotoxicity against MiaPaca2 cells; format: cell-based, human; conditions: previous results
LA1-5S cells = assay: Cell viability (crystal violet), ABTL0812 with cyclophosphamide; format: cell-based; conditions: ABTL0812 30 μM + cyclophosphamide 1, 1.5, 2 μM; 72 hours
Protocol: Methods: LA1-5S cells were incubated with increasing concentrations of cyclophosphamide (1 μM, 1.5 μM and 2 μM) and a subIC50 fixed concentration of ABTL0812 (30 μM). Cells were treated for 72 hours in IMDM with 0.5% FBS. Cell viability was evaluated by crystal violet assay. Data is presented as mean±SEM of three independent experiments. Statistical analyses were performed according to the T-Test principle with GraphPad Prism® 5.0 software (*p<0.05; **p<0.01; ***p<0.001).

Ishikawa cells [3] = assay: Human endometrial cancer xenograft, ABTL0812 with olaparib; format: in vivo; conditions: ABTL0812 oral 120 mg/kg/day; Olaparib oral 50 mg/kg/day
Protocol: Methods: Mice were injected with 4×10^6 Ishikawa cells in one flank to induce tumor formation. […] Olaparib was administered by the oral route 50 mg/kg/day. Tumor volume and body weight were monitored 3 times a week.

U87MG cells [4] = assay: Human glioblastoma orthotopic xenograft, ABTL0812 with radiotherapy; format: in vivo, nude mice
Protocol: Methods: Mice were intra-cerebrally injected with luciferase transfected U87MG cells. Animals were randomized 5 days after cell inoculation and treatments started. ABTL0812 was administered orally at 240 mg/kg 5 days/week and radiotherapy as single dose of 4 Gy administered at day 10.
Tumors were measured by quantification of bioluminescence intensity (BLI) of the region of interest.

U87MG cells [5] = assay: Human glioblastoma orthotopic xenograft, ABTL0812 with temozolomide; format: in vivo, nude mice; conditions: ABTL0812 oral 240 mg/kg 5 days/week; temozolomide oral 32 mg/Kg first 5 days
Protocol: Methods: Mice were intra-cerebrally injected with luciferase transfected U87MG cells. Animals were randomized 5 days after cell inoculation and treatments started. ABTL0812 was administered orally at 240 mg/kg 5 days/week; and temozolomide orally at 32 mg/Kg the first 5 days. Tumors were measured by quantification of bioluminescence intensity (BLI) of the region of interest.

[6] = tested on: endometrial carcinogenesis induced by the deletion of PTEN; assay: Endometrial carcinogenesis induced by PTEN deletion; format: in vivo, mice; conditions: ABTL0812 120 mg/kg daily during 3 weeks
Protocol: Methods: Mice were injected with tamoxifen to induce PTEN deletion. Three weeks after tamoxifen administration, when animal has developed hyperplasias, animals were administered with ABTL0812 at 120 mg/kg daily or with vehicle during 3 weeks. At that time, vehicle treated animals (6 weeks after tamoxifen injection) develop neoplasias, which are quantified by immunohistochemistry of extracted uterus. After ABTL0812 treatment, animals were sacrificed, uterus extracted in paraffin-embedded for further immunohistochemical analysis by hematoxylin-eosin staining for carcinogenesis evaluation or with anti-CD3 to evaluate T lymphocyte infiltration within tumoral lesions, indicative of tumor microenvironment immunomodulation.

[7] = tested on: PMA-activated THP-1 macrophages; assay: Conditioned media of ABTL0812-treated MiaPaca2 cells on THP-1 macrophages; format: cell-based, human; conditions: conditioned media from MiaPaca2 cells treated with ABTL0812 40 μM 72 hours
Protocol: Methods: MiaPaca2 cells were incubated with 40 μM of ABTL0812 during 72 hours and conditioned media (RPMI) of these ABTL0812-treated cells were collected. In parallel, human THP-1 cells were differentiated to macrophages by incubation with PMA (Phorbol myristate acetate) for 24 hours, inducing their attachment to the plates. Then, conditioned media from ABTL0812-treated MiaPaca2 cells was transferred to PMA-activated THP-1 macrophages and incubated during 24 hours for RT-qPCR analysis of M1 phenotype markers IL-1β and TNF-α, or during 48 hours for cell viability studies using the MTT assay. For M1 marker analysis, cells were collected, RNA extracted, retrotranscribed to cDNA and mRNA levels of IL-1β and TNF-α assessed by RT-qPCR.

LLC1 cells = assay: Syngeneic lung cancer model, subcutaneous LLC1, tumor volume; format: in vivo, C57BL6 mice; conditions: ABTL0812 oral 120 mg/kg/day; anti-PD1 i.p. 100 μg/dose every three days; carboplatin and paclitaxel i.p. once a week
Protocol: C57BL6 mice were injected with 0.25×10^6 LLC1 cells in one flank to induce tumor formation. […] Tumor volume and body weight were monitored 3 times a week.

CCCCC/C=C\C/C=C\CCCCCCC(O)C(=O)O (centres unmarked) [ABTL0812, COOH—CHOH—(CH2)6—(CH═CH—CH2)2—(CH2)3—CH3]
PDL1 expression, increase from basal levels (PDL1; Capan-2 cells): 86% | PDL1 expression, increase from basal levels (PDL1; MiaPaca2 cells): 34% | cytotoxic effect of activated T cells on cancer cells [1]: potentiates the cytotoxic effect of activated T cells | tumor volume (Ishikawa cells [2]): significantly reduced tumor volume | IC50 (MiaPaca2 cells): 50 µM | cyclophosphamide cytotoxicity on addition of ABTL0812 (LA1-5S cells): significantly increased cyclophosphamide cytotoxicity at 1 μM | tumor volume (Ishikawa cells [3]): significantly reduced tumor volume | disease-free survival, single agent (U87MG cells [4]; ABTL0812 oral 240 mg/kg 5 days/week): significantly increased the disease-free survival | disease-free survival, combination with radiotherapy (U87MG cells [4]; ABTL0812 oral 240 mg/kg 5 days/week + radiotherapy single dose 4 Gy at day 10): significantly more efficacious than the single treatments | disease-free survival (U87MG cells [5]): significantly increased the disease-free survival | development of endometrial intraepithelial neoplasias (EIN) [6]: significant reduction in the development of endometrial intraepithelial neoplasias | CD3 T lymphocyte infiltration ([6]; anti-CD3 immunohistochemistry): induce the infiltration of CD3 T lymphocytes within tumoral lesions | animals with hyperplasias ([6]; hematoxylin-eosin staining): 80% | gene expression of IL-1β ([7]; 24 hours on macrophages): significantly increasing the gene expression | gene expression of TNF-α ([7]; 24 hours on macrophages): significantly increasing the gene expression | THP-1 cell viability (MTT) ([7]; 48 hours on macrophages): significantly increasing THP-1 cell viability | tumor volume (LLC1 cells): significantly reduced tumor volume
